Four compounds from patent publication EP0002058A1, “3-(2-Aminoethylthio-6-ethyl-7-oxo-1-azabicylo-(3.2.0)-hept-2-en-2-carboxylic acid, process for preparing it and compositions comprising it” (SANRAKU-OCEAN CO., LTD., priority 1977, dated 1979) can be followed below.

Broadly, the MIC is the lowest concentration found to suppress growth. The low end stands for greater potency, the high end for weaker potency.

The test system of series [1] is Comanonas terrigena B-996. As to the kind of experiment: Bioassay of antibacterial potency (disc on agar assay plate, CCU). It counts as cell-based. To be noted: purified solid preparation. An excerpt: • (1) Cells of Comanonas terrigena B-996, cultivated on a nutrient agar overnight, are suspended in a nutrient broth to give a seed culture having an absorbance at […], ascribable to the cells, of 0.04. A melted agar medium consisting of 0.8% Kyokuto powdered bouillon (Kyokuto Seiyaku Kogyo) and 1% Bacto agar (Difco Labs.) is inoculated with 1% of the seed culture. Seven ml portions of the agar medium are poured into petri dishes with a diameter of 9 cm and solidified to prepare a Comamonas assay plate. • (2) Staphylococcus aureus FDA209P is cultivated overnight with shaking in a nutrient broth. The culture is diluted to 50 times with a nutrient broth to obtain a seed culture. A melted agar medium consisting of 1% Kyokuto powdered bouillon (Kyokuto Seiyaku Kogyo) and 1% Bacto agar (Difco Labs.) is inoculated with 1% of the seed culture. Seven ml portions of the agar medium are poured into petri dishes with a diameter of 9 cm and solidified to prepare a Staphylococcus assay plate. • (3) A pulp disc with a diameter of 8 mm is soaked in a sample solution and put on the assay plate mentioned above after removing an excess of the sample solution soaked by placing on filter paper. […] The diameter of the inhibitory zone is measured. TIle concentration of the test compound in the sample solution is calculated by comparing the diameter with that of the standard solution.

Series [2] deals with Klebsiella pneumoniae K-2. As to the kind of experiment: Minimum inhibitory concentration, broth dilution method (brain heart infusion medium). The note with it: K2, inoculum about 1 x 10^5/ml, 35°C, 20 hours. It counts as cell-based. Here is the method: (§1) The minimum inhibitory concentration was determined on various pathogenic microorganisms including a resistant strain to the N-desacetyl derivative by the broth dilution method with a brain heart infusion medium "Eiken" (Eiken Kagaku Co.). Sample solutions to be tested were prepared in a serial dilution with the medium, which were inoculated with the test microorganisms at the final cell count of about 1 x 10^5/ml and incubated at 35 °C. After 20 hours the microbial growth was examined. The minimum inhibitory concentration was determined as the lowest concentration of the sample at which no growth of the corresponding test microorganism was observed.
Background: In broth dilution the organism is exposed to a series of concentrations in liquid medium.

Series [3] concerns Staphylococcus aureus FDA 209P. The series is described as above. The series is classed as cell-based. The note with it: for MIC: Staphylococcus aureus, FDA209P, inoculum about 1 x 10^5/ml, 35°C, 20 hours. Here is the method: as §1
Series [4] deals with Staphylococcus aureus Russel. Described as above. The series is classed as cell-based. To be noted: inoculum about 1 x 10^5/ml, 35°C, 20 hours. Here is the method:
as §1

Series [5] deals with Staphylococcus aureus Smith. As to the kind of experiment: Activity in vivo in mice inoculated intraperitoneally with Staphylococcus aureus Smith. The arrangement: species or system male ddy mice. The note with it: sc, 5 x 10^5 cells/mouse intraperitoneally, injected subcutaneously immediately after the inoculation, read-out: CD50 value. The procedure:
The N-desacetyl derivative was prepared on a large scale in a similar manner to the above-described and the activity in vivo was determined in mice inoculated with 5 x 10^5 cells/mouse of Staphylococcus aureus Smith intraperitoneally. The derivative was injected subcutaneously immediately after the inoculation.

Details of series [6]: species or system male ddy mice. To be noted: mouse, in vivo, ip, 500 mg/kg.
Series [7] can be described thus: Solubility. The series is classed as physicochemical.
The test system of series [8] is staphylococcal bacteria. As to the kind of experiment: Antimicrobial spectrum (general statement). It counts as cell-based.
Series [9] has as its system pathogenic Gram-positive bacteria. As to the kind of experiment: Activity in vivo (general statement). The note with it: mice infected with pathogenic Gram-positive bacteria.

Values after ≈ are worked out from the molar mass of the structure shown. Structures can show the parent of a compound that is named as a salt.

Turning to `CC[C@H]1C(=O)N2C(C(=O)OC(c3ccccc3)(c3ccccc3)c3ccccc3)=C(SCCNC(C)=O)C[C@H]12` (relative stereo) [trityl ester of antibiotic PS-5], the antibacterial potency in series [1] was 10,800 CCU/mg.
On to `CO[C@@]1(NC(=O)Cc2cccs2)C(=O)N2C(C(=O)O)=C(COC(N)=O)CS[C@@H]21` [Cefoxitin, reference compound], for which the values for the MIC in [2], in series [3] and in [4] were 12.5 µg/mL (≈ 29.2 µM), 1.56 µg/mL (≈ 3.65 µM) and 3.13 µg/mL (≈ 7.32 µM), respectively.
Regarding `CC[C@H]1C(=O)N2C(C(=O)O)=C(SCCNC(C)=O)C[C@H]12` (relative stereo) [PS-5 sodium salt, reference compound], the antibacterial potency in series [1] is reported as 21,000 CCU/mg.
For `CCC1C(=O)N2C(C(=O)O)=C(SCCN)CC12` (stereo not drawn) [N-desacetyl derivative], the MIC in series [2] is 5 µg/mL (≈ 19.5 µM); in series [3], 0.008 µg/mL (≈ 0.0312 µM); in [4], 0.063 µg/mL (≈ 0.246 µM). For the same compound, the “inhibitory activity relative to that of the antibiotic PS-5” value in series [3] (Staphylococcus aureus FDA 209p, times higher than antibiotic PS-5) is reported as “about 10 times”. Moreover, the ED50 in [5] amounted to 0.55 mg/kg. In addition, the acute toxicity result in series [6] is on record as “No acute toxicity”. The “Solubility in acetone, ethyl acetate and benzene” value in series [7] (acetone, ethyl acetate and benzene) was “practically insoluble”. The Solubility in water result in series [7] (water) is “easily soluble”. In [8], the antimicrobial activity result is “high antimicrobial activity”. Also, in series [9], the therapeutic effect entry is listed as “remarkable therapeutic effect”.
